Several values for one entry are separate records, joined by “and”; a condition that tells them apart may be missing. Identical values can stand only once.
Conditions: Fluid (supercritical or subcritical phases), Coaxial cylinder method

FCC(F)(F)F [1,1,1,2-tetrafluoroethane]
Conditions | thermal conductivity
299.29 K, 170 kPa | 0.01287 W/m/K
299.63 K, 170 kPa | 0.01279 W/m/K
318.97 K, 740 kPa | 0.01489 W/m/K and 0.01486 W/m/K
319.14 K, 160 kPa | 0.0146 W/m/K
345.58 K, 180 kPa | 0.01711 W/m/K
346.36 K, 180 kPa | 0.01739 W/m/K
348.54 K, 180 kPa | 0.01732 W/m/K
351.84 K, 640 kPa | 0.01763 W/m/K
363.88 K, 180 kPa | 0.01891 W/m/K
365 K, 180 kPa | 0.01891 W/m/K
365.41 K, 180 kPa | 0.01893 W/m/K
365.69 K, 180 kPa | 0.01893 W/m/K
366.52 K, 180 kPa | 0.01892 W/m/K
366.8 K, 180 kPa | 0.01893 W/m/K
372.42 K, 680 kPa | 0.01975 W/m/K
372.43 K, 170 kPa | 0.01968 W/m/K
372.43 K, 680 kPa | 0.01965 W/m/K
374.18 K, 4090 kPa | 0.0729 W/m/K
374.19 K, 4100 kPa | 0.0708 W/m/K
374.21 K, 4120 kPa | 0.068 W/m/K
374.22 K, 4142 kPa | 0.0659 W/m/K
374.22 K, 4149 kPa | 0.0654 W/m/K
374.23 K, 4187 kPa | 0.0642 W/m/K
374.28 K, 4085 kPa | 0.141 W/m/K
374.31 K, 4090 kPa | 0.1233 W/m/K
374.32 K, 4093 kPa | 0.1139 W/m/K
374.34 K, 4097 kPa | 0.1057 W/m/K
374.36 K, 4100 kPa | 0.0993 W/m/K
374.37 K, 4073 kPa | 0.1974 W/m/K
374.37 K, 4074 kPa | 0.1974 W/m/K
374.37 K, 4245 kPa | 0.0643 W/m/K
374.37 K, 4270 kPa | 0.0643 W/m/K
374.37 K, 4358 kPa | 0.0641 W/m/K
374.38 K, 4078 kPa | 0.1828 W/m/K
374.38 K, 4083 kPa | 0.1742 W/m/K
374.38 K, 4105 kPa | 0.0914 W/m/K
374.39 K, 4070 kPa | 0.1644 W/m/K
374.4 K, 4110 kPa | 0.0851 W/m/K
374.47 K, 4071 kPa | 0.1096 W/m/K
374.5 K, 4533 kPa | 0.0637 W/m/K
374.51 K, 4621 kPa | 0.0635 W/m/K
374.52 K, 4710 kPa | 0.0617 W/m/K
374.52 K, 4759 kPa | 0.061 W/m/K
374.54 K, 4072 kPa | 0.0831 W/m/K
374.57 K, 4073 kPa | 0.0764 W/m/K
374.61 K, 4068 kPa | 0.0674 W/m/K
374.66 K, 4063 kPa | 0.0593 W/m/K
374.72 K, 4049 kPa | 0.0529 W/m/K
374.76 K, 3717 kPa | 0.0352 W/m/K
374.89 K, 4035 kPa | 0.0494 W/m/K
374.92 K, 3675 kPa | 0.0342 W/m/K
374.96 K, 4117 kPa | 0.1232 W/m/K
374.96 K, 4119 kPa | 0.1244 W/m/K
374.96 K, 4126 kPa | 0.1244 W/m/K
374.97 K, 4112 kPa | 0.1176 W/m/K
374.97 K, 4132 kPa | 0.1198 W/m/K
374.99 K, 4107 kPa | 0.1106 W/m/K
374.99 K, 10033 kPa | 0.064 W/m/K
375 K, 4149 kPa | 0.101 W/m/K
375.01 K, 8053 kPa | 0.0615 W/m/K
375.03 K, 4099 kPa | 0.091 W/m/K
375.03 K, 4155 kPa | 0.091 W/m/K
375.03 K, 6045 kPa | 0.0576 W/m/K
375.04 K, 888 kPa | 0.0235 W/m/K
375.04 K, 4160 kPa | 0.0861 W/m/K
375.06 K, 4168 kPa | 0.0796 W/m/K
375.07 K, 4097 kPa | 0.0773 W/m/K
375.1 K, 3544 kPa | 0.0321 W/m/K
375.1 K, 3981 kPa | 0.0428 W/m/K
375.1 K, 4185 kPa | 0.0704 W/m/K
375.11 K, 4099 kPa | 0.0671 W/m/K
375.13 K, 4199 kPa | 0.0643 W/m/K
375.14 K, 3928 kPa | 0.0409 W/m/K
375.14 K, 4132 kPa | 0.1072 W/m/K
375.14 K, 4134 kPa | 0.108 W/m/K
375.14 K, 4136 kPa | 0.108 W/m/K
375.14 K, 4138 kPa | 0.108 W/m/K
375.14 K, 4140 kPa | 0.108 W/m/K
375.14 K, 4142 kPa | 0.1072 W/m/K
375.14 K, 4144 kPa | 0.1063 W/m/K
375.14 K, 4216 kPa | 0.0612 W/m/K
375.15 K, 4130 kPa | 0.1055 W/m/K
375.15 K, 4146 kPa | 0.1047 W/m/K
375.15 K, 4148 kPa | 0.1024 W/m/K
375.16 K, 4150 kPa | 0.1009 W/m/K
375.16 K, 4153 kPa | 0.0988 W/m/K
375.16 K, 4244 kPa | 0.0586 W/m/K
375.17 K, 4157 kPa | 0.0941 W/m/K
375.17 K, 4289 kPa | 0.0565 W/m/K
375.18 K, 4030 kPa | 0.0479 W/m/K
375.18 K, 4160 kPa | 0.0916 W/m/K
375.18 K, 4340 kPa | 0.055 W/m/K
375.18 K, 4942 kPa | 0.0559 W/m/K
375.18 K, 5054 kPa | 0.0557 W/m/K
375.18 K, 5057 kPa | 0.055 W/m/K
375.19 K, 4163 kPa | 0.0881 W/m/K
375.19 K, 4379 kPa | 0.0546 W/m/K
375.19 K, 4458 kPa | 0.0541 W/m/K
375.19 K, 4551 kPa | 0.0545 W/m/K
375.19 K, 4557 kPa | 0.0538 W/m/K
375.2 K, 4166 kPa | 0.0849 W/m/K
375.2 K, 4456 kPa | 0.053 W/m/K
375.21 K, 4170 kPa | 0.0823 W/m/K
375.21 K, 4171 kPa | 0.0814 W/m/K
375.23 K, 4178 kPa | 0.0777 W/m/K
375.23 K, 4181 kPa | 0.076 W/m/K
375.24 K, 4120 kPa | 0.1016 W/m/K
375.24 K, 4189 kPa | 0.0731 W/m/K
375.28 K, 4145 kPa | 0.0986 W/m/K
375.28 K, 4150 kPa | 0.1002 W/m/K
375.28 K, 4156 kPa | 0.1002 W/m/K
375.28 K, 4162 kPa | 0.0994 W/m/K
375.28 K, 4167 kPa | 0.0984 W/m/K
375.28 K, 4208 kPa | 0.0667 W/m/K
375.29 K, 4139 kPa | 0.0943 W/m/K
375.29 K, 4174 kPa | 0.0955 W/m/K
375.3 K, 4089 kPa | 0.0573 W/m/K
375.3 K, 4181 kPa | 0.0927 W/m/K
375.3 K, 4229 kPa | 0.0627 W/m/K
375.31 K, 4189 kPa | 0.0889 W/m/K
375.31 K, 4254 kPa | 0.0613 W/m/K
375.31 K, 4265 kPa | 0.061 W/m/K
375.31 K, 4294 kPa | 0.0605 W/m/K
375.31 K, 4307 kPa | 0.0603 W/m/K
375.31 K, 4341 kPa | 0.06 W/m/K
375.32 K, 4130 kPa | 0.0916 W/m/K
375.32 K, 4134 kPa | 0.0856 W/m/K
375.32 K, 4197 kPa | 0.0848 W/m/K
375.32 K, 4389 kPa | 0.0592 W/m/K
375.32 K, 4450 kPa | 0.0585 W/m/K
375.32 K, 4490 kPa | 0.0588 W/m/K
375.33 K, 4129 kPa | 0.087 W/m/K
375.33 K, 4204 kPa | 0.0816 W/m/K
375.34 K, 3828 kPa | 0.0367 W/m/K
375.34 K, 4085 kPa | 0.0517 W/m/K
375.34 K, 4126 kPa | 0.0773 W/m/K
375.36 K, 4121 kPa | 0.0721 W/m/K
375.36 K, 4216 kPa | 0.0746 W/m/K
375.37 K, 4128 kPa | 0.0763 W/m/K
375.38 K, 4225 kPa | 0.0686 W/m/K
375.39 K, 4235 kPa | 0.0668 W/m/K
375.4 K, 4126 kPa | 0.0683 W/m/K
375.4 K, 4244 kPa | 0.0645 W/m/K
375.42 K, 3349 kPa | 0.0298 W/m/K
375.42 K, 4115 kPa | 0.0611 W/m/K
375.42 K, 4265 kPa | 0.0608 W/m/K
375.43 K, 4051 kPa | 0.0425 W/m/K
375.43 K, 4280 kPa | 0.0596 W/m/K
375.43 K, 4292 kPa | 0.0588 W/m/K
375.45 K, 4349 kPa | 0.0567 W/m/K
375.46 K, 4029 kPa | 0.0397 W/m/K
375.46 K, 4107 kPa | 0.0545 W/m/K
375.46 K, 4118 kPa | 0.0591 W/m/K
375.46 K, 4473 kPa | 0.0555 W/m/K
375.46 K, 4527 kPa | 0.055 W/m/K
375.46 K, 4625 kPa | 0.055 W/m/K
375.46 K, 4681 kPa | 0.0552 W/m/K
375.46 K, 4735 kPa | 0.0582 W/m/K
375.48 K, 4848 kPa | 0.0566 W/m/K
375.49 K, 4097 kPa | 0.0508 W/m/K
375.51 K, 4107 kPa | 0.0521 W/m/K
375.52 K, 4086 kPa | 0.0475 W/m/K
375.53 K, 4097 kPa | 0.0492 W/m/K
375.56 K, 4055 kPa | 0.0434 W/m/K
375.58 K, 4040 kPa | 0.0421 W/m/K
375.59 K, 3196 kPa | 0.0287 W/m/K
375.6 K, 4065 kPa | 0.0432 W/m/K
375.61 K, 3999 kPa | 0.0395 W/m/K
375.61 K, 4059 kPa | 0.0425 W/m/K
375.63 K, 3965 kPa | 0.0378 W/m/K
375.65 K, 4023 kPa | 0.0393 W/m/K
375.66 K, 3917 kPa | 0.0361 W/m/K
375.69 K, 3874 kPa | 0.0343 W/m/K
375.72 K, 4178 kPa | 0.0857 W/m/K
375.72 K, 4187 kPa | 0.0881 W/m/K
375.73 K, 3772 kPa | 0.0319 W/m/K
375.73 K, 4179 kPa | 0.083 W/m/K
375.73 K, 4199 kPa | 0.0841 W/m/K
375.74 K, 4210 kPa | 0.0799 W/m/K
375.76 K, 3000 kPa | 0.0274 W/m/K
375.76 K, 3658 kPa | 0.0306 W/m/K
375.76 K, 4161 kPa | 0.0752 W/m/K

Reference: the NIST ThermoML archive (doi:10.1021/je900210h)
